Experimental findings from US11198686B2, “Crystal form and salt form of pyridone compound and preparation method therefor” (GUANGZHOU JOYO PHARMATECH CO., LTD., priority 2017, dated 2021) are described below.

For orientation: inhibition means the drop in the measured response relative to a control, in per cent. A high value points to strong suppression. What is called solubility is the concentration that dissolves in the medium under given conditions.

Converted amounts (≈) assume the structure as drawn.

Series [1] is described as follows: Study on polymorphism of Compound 1 (suspension in solvents, XRPD). Type of series: physicochemical. The settings on record: for Crystal form: 40° C., 2 days. As for the experimental part:
Approximate 50 mg of the sample were weighed and added to separate 4.0 mL glass vials, respectively, followed by addition of an appropriate amount of the solvents or solvent mixture (see the table below) to give a suspension. After shaking at 40° C. for 2 days, all the samples were taken out and centrifuged in a centrifuge at 8000 r/min for 5 minutes. The supernatant was discarded, and the remaining solid was dried in a 35° C. vacuum drying box for two days. The dried samples were taken out for XRPD detection.

The subject of series [2] is TNF-α. Put plainly: Ex-vivo effect on endotoxin LPS-induced TNF-α in rat blood (ELISA). Type of series: cell-based, Sprague Dawley rats. As for the experimental part: Experimental objective: testing the effect of Compound 1 on bacterial lipopolysaccharide (LPS)-induced TNF-α in rat blood to evaluate the anti-inflammatory effect ex-vivo
Sprague Dawley rats (male, 280-310 g, Shanghai Slac Laboratory Animal CO. LTD)
Rat TNF-alpha Quantikine ELISA Kit (R&D, #SRTA00)
A solution of the compound was prepared (5 mM or 1 mM), and 40 μL of the prepared solution was added into a 48-well cell culture plate, respectively (the final concentration of the compounds was 0.5 or 0.1 mM). The rats were anaesthetized with isoflurane and the blood was collected from the abdominal aorta (Heparin anticoagulant). The blood was added into the 48-well cell culture plate (320 μL per well) containing the compounds to be tested. Afterwards, the 48-well cell culture plate was incubated at 37° C. for 30 minutes. Then the plate was taken out, and 40 μL of LPS (the final concentration was 100 μg/mL) was added and mixed evenly. The resulting mixture was incubated at 37° C. After 5 hours, the 48-well plate was taken out and the blood was transferred into 1.5 mL centrifuge tubes and centrifuged in a centrifuge (4,500 rpm, 4° C., 5 min). The supernatant was isolated to obtain the plasma, which was aliquoted (20 μL per well) into a 96-well sample plate, and then sharp-frozen and preserved in a refrigerator (−80° C.). On the second day, the TNF-α level in the plasma samples was determined by using R&D ELISA kits according to the kit specification. The data was analyzed by EXCEL and Prism.

A short description of series [3]: Solid-state stability test of crystal form A under high temperature and high humidity (HPLC, XRPD). Type of series: physicochemical. The settings on record: for Appearance / Crystal form / Purity / Total impurities: open. As for the experimental part: 16 samples of 10 mg of crystal form A were weighed in parallel and spread evenly on the bottom of glass bottles, and 8 samples of 20 mg of crystal form A were spread out into a thin layer. All sample bottles were sealed with aluminum foil, and some small holes were punched on the aluminum foil to allow the samples to fully contact with the ambient air. The samples were placed at 40° C./75% RH and 60° C./75% RH for 1 month, 2 months and 3 months, respectively.
Analytical method: Agilent 1260 HPLC with DAD detector or Waters 2695 HPLC with PDA detector was used: column: Waters Atlantis dC18 (4.6 mm×150 mm, 3.0 μm); column temperature: 40° C.; flow rate: 1.0 mL/min; detection wavelength: 230 nm; injection volume: 10 μL; sample concentration: 0.5 mg/mL; diluent: acetonitrile:water=1:1 (v/v); the following mobile phase gradients were used for analysis: […]

Series [4] deals with idiopathic pulmonary fibrosis. Description: SD rat left unilateral pulmonary fibrosis model. Type of series: in vivo.
The nature of series [5]: Solid-state physical stability test of crystal form A under different temperature, humidity and light irradiation. It is filed as physicochemical. The settings on record: for Appearance / Crystal form: 10 d. As for the experimental part:
4 samples of 100 mg of crystal form A solid were weighed in parallel and spread evenly on the bottom of the glass bottles into a thin layer. The bottles were sealed with aluminum foil, and some small holes were punched on the aluminum foil to allow the sample to be fully in contact with the ambient air. The 4 samples prepared were placed under the conditions of 25° C./92.5% RH, 60° C., 40° C./75% RH and light irradiation, and the physical stability of the samples on the 10th day was examined. In the meantime, about 100 mg of crystal form A solid was weighed separately, placed on the bottom of a glass sample bottle, sealed with a screw cap and stored at −20° C., this sample was used as the control sample. On the 10th day, all samples were taken out, and returned to room temperature. The appearance change of the samples was observed, and XRPD was used to detect the crystal form of the samples. By comparing the accelerated samples with the control sample, the solid-state physical stability of crystal form A of Compound 1 was determined.

Series [6] can be described thus: Approximate solubility of crystal form A in different solvents (manual stepwise dilution). It is filed as physicochemical. The settings on record: thermodynamic from solid, ambient temperature. As for the experimental part:
In this study, the method of manual stepwise dilution along with the observation of the dissolution under ambient temperature condition was used for determination. About 2 mg of crystal form A of Compound 1 was added to separate HPLC vials, followed by multiple addition of organic solvents or the mixed solvents (Table 5) in a small amount, and the dissolution of the compound was monitored.

For the molecule `CC1(c2ccc(=O)n(-c3ccsc3)c2)COC1` [Compound 1], the Crystal form result in series [1] (suspension in Acetone), in series [1] (suspension in Acetone:Water (1:2)), in series [1] (suspension in Acetonitrile), in series [1] (suspension in Ethanol), in series [1] (suspension in Ethyl acetate) and in series [1] (suspension in Water) was “Form A” each time.
As for `Cc1ccc(=O)n(-c2ccccc2)c1` [Pirfenidone (PFD), Pirfenidone, reference compound], in series [2] (rat blood, LPS 100 μg/mL, compound 0.5 mM), 500 µM produced 53.5% inhibition.
In the case of `CC1(c2ccc(=O)n(-c3ccsc3)c2)COC1` [crystal form A], in series [2] (final concentration 0.1 mM, inhibition significantly higher than Pirfenidone), the “Inhibitory effect on TNF-α level induced by LPS (in words)” value is “significant inhibitory effect”. In series [2] (rat blood, LPS 100 μg/mL, compound 0.1 mM), this molecule gave an inhibition at 100 µM of 80.8%. Moreover, the Appearance result in series [3] (40° C./75% RH, 1 M) is given as “White powder”; in series [3] (40° C./75% RH, 2 M) it was “White powder”; in series [3] (40° C./75% RH, 3 M), “White powder”; in series [3] (60° C./75% RH, 1 M) it was “White powder”; in series [3] (60° C./75% RH, 2 M), “White powder”; in series [3] (60° C./75% RH, 3 M) it was “White powder”. Moreover, the Appearance result in series [5] (25° C./92.5% RH (open)), in series [5] (40° C./75% RH (open)), in series [5] (60° C. (open)) and in series [5] (Light irradiation) was “White” throughout. Further, the Crystal form entry in series [3] (40° C./75% RH, 1 M) is “Form A”; in series [3] (40° C./75% RH, 2 M) it was “Form A”; in series [3] (40° C./75% RH, 3 M) it was “Form A”; in series [3] (60° C./75% RH, 1 M) it was “Form A”; in series [3] (60° C./75% RH, 2 M), “Form A”; in series [3] (60° C./75% RH, 3 M), “Form A”. Further, the Crystal form result in series [5] (25° C./92.5% RH (open)), in series [5] (40° C./75% RH (open)), in series [5] (60° C. (open)) and in series [5] (Light irradiation) was “Form A” in each case. The Purity in series [3] (40° C./75% RH, 1 M) stood at 99.949%; in series [3] (40° C./75% RH, 2 M), 99.948%; in series [3] (40° C./75% RH, 3 M) it was 99.947%; in series [3] (60° C./75% RH, 1 M) it was 99.949%; in series [3] (60° C./75% RH, 2 M), 99.948%; in series [3] (60° C./75% RH, 3 M), 99.950%. The Total impurities in series [3] (40° C./75% RH, 1 M) is listed as 0.051%; in series [3] (40° C./75% RH, 2 M), 0.052%; in series [3] (40° C./75% RH, 3 M) it was 0.053%; in series [3] (60° C./75% RH, 1 M), 0.051%; in series [3] (60° C./75% RH, 2 M), 0.052%; in series [3] (60° C./75% RH, 3 M), 0.050%. In addition, the “Solid-state stability (conclusion)” value in series [3] (within three months, 40° C./75% RH and 60° C./75% RH) was “stable”. The “Stability of crystal form in solvents (conclusion)” value in series [1] (under the conditions of the solvents of Table 4) is on record as “stable”. In addition, in series [4], the “Inhibitory effect on idiopathic pulmonary fibrosis (in words)” value is recorded as “significant inhibitory effect”. The “Solid-state physical stability (conclusion)” value in series [5] (within 10 days under each condition) is listed as “stable”. Moreover, the solubility in series [6] (aqueous with cosolvent or surfactant or cyclodextrin, Acetone-water (1:2)) was 52 to 103 mg/mL (≈ 210 to 416 mM); in series [6] (aqueous with cosolvent or surfactant or cyclodextrin, Acetonitrile-water (1:1)), > 100 mg/mL; in series [6] (aqueous with cosolvent or surfactant or cyclodextrin, Ethanol-water (1:1)) it was > 100 mg/mL; in series [6] (aqueous with cosolvent or surfactant or cyclodextrin, Ethanol-water (3:1)) it was > 104 mg/mL; in series [6] (aqueous with cosolvent or surfactant or cyclodextrin, Isopropanol-water (1:1)) it was > 102 mg/mL; in series [6] (aqueous with cosolvent or surfactant or cyclodextrin, Methanol-water (1:1)), > 102 mg/mL. The solubility in series [6] (aqueous with cosolvent or surfactant or cyclodextrin, Methanol-water (3:1)) is > 104 mg/mL; in series [6] (organic solvent or mixture, 1,4-dioxane), > 102 mg/mL; in series [6] (organic solvent or mixture, 2-Methyltetrahydrofuran) it was 34 to 51 mg/mL (≈ 137 to 206 mM); in series [6] (organic solvent or mixture, Acetone), 52 to 103 mg/mL (≈ 210 to 416 mM); in series [6] (organic solvent or mixture, Acetonitrile), > 100 mg/mL; in series [6] (organic solvent or mixture, Cyclohexane), < 2 mg/mL. Further, the solubility in series [6] (organic solvent or mixture, Ethanol) was 51 to 102 mg/mL (≈ 206 to 412 mM); in series [6] (organic solvent or mixture, Ethyl acetate) it was 34 to 51 mg/mL (≈ 137 to 206 mM); in series [6] (organic solvent or mixture, Heptane) it was < 2 mg/mL; in series [6] (organic solvent or mixture, Isopropanol) it was 34 to 52 mg/mL (≈ 137 to 210 mM); in series [6] (organic solvent or mixture, Isopropyl acetate), 20 to 34 mg/mL (≈ 80.9 to 137 mM); in series [6] (organic solvent or mixture, Methanol), > 104 mg/mL. The solubility in series [6] (organic solvent or mixture, Methyl ethyl ketone) is 52 to 104 mg/mL (≈ 210 to 421 mM); in series [6] (organic solvent or mixture, Methyl isobutyl ketone), 34 to 51 mg/mL (≈ 137 to 206 mM); in series [6] (organic solvent or mixture, Methyl tert-butyl ether), < 2 mg/mL; in series [6] (organic solvent or mixture, Tetrahydrofuran), 51 to 102 mg/mL (≈ 206 to 412 mM); in series [6] (organic solvent or mixture, Toluene) it was 35 to 52 mg/mL (≈ 142 to 210 mM); in series [6] (organic solvent or mixture, n-butanol) it was 50 to 100 mg/mL (≈ 202 to 404 mM). This molecule came in with a solubility in series [6] (Water) of 10 to 21 mg/mL (≈ 40.4 to 84.9 mM).
